# Test results from patent publication US20120076785A1, “METHOD FOR INHIBITING NEURODEGENERATION” (GENENTECH, INC., priority 2009, published 2012).
# Where a SMILES comes first, the peptide text is derived from it. The star is where a group is joined. Cbz = O=C(OCc1ccccc1)*; CH2F = FC*
# Assays:
# commissural neurons = test: dorsal spinal cord survival assay (commissural explant cultures); format: cell-based, rat
# Experimental: To examine functional roles of DR6 in axonal degeneration and programmed cell death of commissural neurons, an RNAi-based dorsal spinal cord survival assay (Kennedy et al., Cell, 78:425-435 (1994); Wang et al., supra, 1999) was conducted (see FIG. 3). E13 rat or E11.5 mouse embryos were placed in L15 medium (Gibco) and siRNAs (IDT) together with green fluorescent protein (“GFP”)-encoding plasmids were injected into the neural tubes. The siRNAs and plasmids were then delivered to dorsal progenitor cells by electroporation. Dorsal spinal cord explants were dissected out, embedded into a 3D-collagen gel matrix, and cultured in Opti-MEM/F12 medium (Invitrogen) with recombinant netrin-1 ([…]) and 5% horse serum (Sigma) at 37° C. in a 5% CO2 environment. Within 16 hours in response to chemo-attractant netrin-1, commissural axons grow out of the explant into the collagen matrix gel (Kennedy et al., supra, 1994). Commissural axons are visualized by GFP fluorescence by observation using an inverted microscope.
# Materials and methods used to generate the data shown in this figure are as follows. To investigate physiological roles of DR6 receptor in axonal degeneration and programmed cell death of commissural neurons, a dorsal spinal cord survival assay according to protocols known in the art (Kennedy et al., Cell 78:425-435 (1994); Wang et al., Nature 401:765-769 (1999)) was performed (with data shown in FIG. 4B). E13 rat embryos were placed in L15 medium (Gibco) and injected into their neural tubes with the following siRNA constructs (FIG. 4B):
# Control non-targeting, or targeting DR6 siRNA #2, or targeting DR6 siRNA #3 (IDT) together with either wild-type or mis-match DR6 cDNA and GFP-encoding plasmids. DR6 cDNA and GFP cDNA were subcloned into pCAGGS vector backbone (commercially available from BCCM/LMBP). siRNAs and plasmids were then delivered to dorsal progenitor cells by electroporation. Dorsal spinal cord explants were then dissected out, embedded into a 3D collagen gel matrix and cultured in Opti-MEM/F12 medium (Invitrogen) with recombinant netrin-1 and 5% horse serum (Sigma) at 37° C. in a 5% CO2 environment. Within 16 hours in response to chemo-attractant netrin-1 commissural axons grow out of the explant into the collagen matrix gel (Kennedy et al., Cell 78:425-435 (1994). Commissural axons are visualized by GFP fluorescence by observation using inverted microscope. After 48 hours in culture in the absence of trophic factor support derived from the floorplate, commissural neurons undergo programmed cell death and their axons degenerate (Wang et al., Nature, 401:765-769 (1999)) (FIG. 4B). However, the axonal degeneration program can be blocked by introduction of a targeting DR6-specific siRNA #3 (FIG. 4B). The specific, on-target effect of DR6-specific siRNA #3 is further confirmed in a rescue experiment in which axonal degeneration phenotype is restored by co-expression of the siRNA#3-resistant mis-match DR6 cDNA construct together with DR6 siRNA #3 (FIG. 4B). Presented experimental evidence establishes that DR6 receptor function is required for axonal degeneration and death of commissural neurons upon withdrawal from their intermediate target, the floorplate of the spinal cord.
# A dorsal spinal cord survival assay (as described in Example 2 above) was conducted using anti-DR6 antibodies. Microscopic observation (using green fluorescence channel for GFP) was employed to visualize commissural axons. […]
# sensory axons = test: NGF deprivation assay in Campenot chambers (local sensory axon degeneration); format: cell-based, mouse; conditions: for sensory axonal degeneration induced by NGF withdrawal: 30 μg/ml hDR6-ECD-Fc in axonal compartment, 0 to 24 hours
# Experimental: Materials and methods used to generate the data shown in this figure are as follows. To examine whether ligand is required for DR6 function in sensory axonal degeneration, a compartmented culture analysis of sensory axon growth and degeneration was carried out as follows. A Campenot nerve cell chamber system was used to isolate neuronal processes (axons) from the cell bodies in different compartments (separate fluid environments), analogous to neuronal cell bodies in one location of the nervous system projecting their axons to a distal target in another location. The assay was carried out as originally described by Campenot (Campenot et al., J. Neurosci. 11(4): 1126-39 (1991)) with the following modifications. Briefly, 35-mm tissue culture dishes were coated with PDL/Laminin and scratched with a pin rake (Tyler Research) to generate tracks, as illustrated for example in FIGS. 1 and 4 of Campenot et al., supra.
# A drop of culture medium (Neurobasal medium with B27 supplement, 25 ng/ml of NGF, and 4 g/L of methylcellulose) was placed on the scratched substratum. A Teflon divider (Tyler Research) was seated on silicone grease and a dab of silicone grease was placed at the mouth of the center slot. Dissociated sensory neurons derived from E12.5 mouse DRGs were suspended in methylcellulose-thickened medium and loaded into a disposable sterile syringe fitted with a 22-gauge needle. This cell suspension was injected into the center slots of each compartmented dish under the dissecting microscope. The neurons were allowed to settle overnight. […]
# To trigger local axonal degeneration, NGF-containing medium from axonal compartments was substituted with neurobasal medium with an NGF blocking antibody (anti-NGF, Genentech, Inc., 20 ug/ml). Zero hours, 6 hours, or 24 to 48 hours following NGF deprivation, sensory neurons were fixed in 4% PFA for 30 minutes at room temperature and processed for immunofluorescence staining with axonal marker TUJ-1 (Covance, 1:500 dilution) to visualize degenerating axons by fluorescence microscopy (FIG. 11B) (as above described in Example 7). […]
# To examine whether ligand is required for DR6 function in axonal degeneration program triggered by NGF withdrawal, 30 μg/ml of hDR6-ECD-Fc immunoadhesin protein (described in Example 3 above) or 30 μg/ml of a control Fc (Genentech, Inc.) was included together with anti-NGF treatment in axonal compartments of Campenot Chambers. Zero to 24 hours after NGF deprivation, axons in Campenot Chambers were fixed with 4% PFA/PBS and visualized by immuno-fluorescence staining with TUJ-1 (1:500, Covance)/secondary antibody conjugated to a fluorescence group Alexa 488 (Molecular Probes, BD) (FIG. 11B). […]
# [1] = system: DR6-AP binding sites on BAX null sensory axons; test: in situ DR6-AP sensory axon binding assay; format: cell-based, mouse; conditions: BACE inhibitor 1 uM; BAX null E12.5 sensory axons
# Experimental: For the in situ DR6-AP sensory axon binding assay, either wild-type or Bax null sensory explants were cultured in Neurobasal medium/B27 (Invitrogen) as outlined in the Examples 7-8 above, with 50 ng/mlNGF (Roche). Two days post-plating, DRG explants were either left untreated or deprived from NGF as described above in Examples 7-8. Bax inhibitory peptide was added where indicated on FIG. 12B (10 uM, Bax-V5, Tocris). Twelve hours post-NGF deprivation, DRG explants were washed twice with the binding buffer (HBSS, Gibco Cat. No. 14175-095, with 0.2% BSA, 0.1% NaN3, 5 mM CaCl2, 1 mM MgCl2, 20 mM HEPES, pH=7.0). AP binding assay was then carried out by making a 1:1 mixture of DR6-AP conditioned medium and the binding buffer (or control AP conditioned medium and the binding buffer), which was applied directly to DRG explants in 8-well culture slides (Becton, Dickinson and Company) and incubated for 90 minutes at room temperature.
# Following the incubation, unbound DR6-AP proteins were washed away by rinsing DRG explants five times with the binding buffer. DRG explants were then fixed with 3.7% formaldehyde diluted in PBS, for 12 minutes at room temperature. The remaining formaldehyde was removed by rinsing DRG explants 3 times with HBS buffer (20 mM HEPES pH=7.0, 150 mM NaCl). Endogenous AP activity was blocked by heat inactivation at 65° C. in HBS buffer for 30 minutes. […]
# [2] = biological target: p75 (as used in the ELISA and in general statements); test: ELISA, format not described (data not shown)
compound,measurement,setting,value
"hDR6-ECD-Fc: human DR6 extracellular domain sequence fused with Fc, SEQ ID NO: 4",commissural axon degeneration,"commissural neurons; 30 μg/ml and 10 μg/ml hDR6-ECD-Fc, 48 hours",delayed
same,sensory axonal degeneration induced by NGF withdrawal,sensory axons,delayed the onset of axonal degeneration
same,sensory axonal degeneration induced by NGF withdrawal,sensory axons; listed as DR6-Fc,delayed
CC[C@H](C)[C@H](NC(=O)OCc1ccccc1)C(=O)N[C@@H](CCC(=O)OC)C(=O)N[C@H](C(=O)N[C@@H](CC(=O)OC)C(=O)CF)[C@@H](C)O [Z-IETD-FMK] (Cbz-IE(OMe)TD(OMe)-CH2F),axonal degeneration after NGF deprivation,"sensory axons; 24 hours anti-NGF, SP 600125 1 uM, Z-IETD-FMK 10 uM, Z-DEVD-FMK 10 uM",delayed
(L)-HIV-TAT48-57-PP-JBD20 [L-JNK-I],stereotyped degeneration of commissural neurons in DSC explant cultures,"commissural neurons; JNK inhibitor at 10 μM, 48 hr, no trophic factor, listed as L-JNKI-1",largely blocks stereotyped degeneration
same,axonal degeneration of commissural neurons,commissural neurons; peptide JNK inhibitor at 1 μM,partially blocked axonal degeneration
"Abeta: recombinant human Beta amyloid amino acids 1-42, Chemicon",induction of commissural axonal degeneration,commissural neurons; Abeta 1-42 3 μM added 24 hours after plating with BACE inhibitor 1 uM,axonal degeneration triggered
5′-CAAUAGGUCAGGAAGAUGGCU-3′ [DR6-specific siRNA #3],axonal degeneration of commissural neurons,"commissural neurons; siRNA electroporated, 48 hours in culture without floorplate trophic support",blocked
OM99-2,axonal degeneration after NGF deprivation,sensory axons; BACE inhibitor 1 uM,blocked
same,disappearance of DR6-AP binding sites from sensory axons following NGF withdrawal,[1],block the disappearance of DR6-AP binding sites
APP (as used in the p75 ELISA) (from UniProt P05067 18-286) (ligand),EC50,[2],0.3 µM
